Where “and” joins values, the source holds several entries; their conditions need not be identical. Equal values may be shown once. Toxic doses and inconclusive results are not listed.
Tested on: P388 leukemia ip, CD2F1 mice, survival T/C
Test: NCI In Vivo Anticancer Drug Screen. Data for tumor model P388 Leukemia (intraperitoneal) in CD2F1 (CDF1) mice
Conditions: endpoint: median survival time, higher = longer survival
Summary of the method: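 Mice carrying the transplanted tumor received test compound or vehicle. Survival was recorded in each group, and the value is the treated-group measurement divided by that of the vehicle-treated control group.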

[1] = dose: 100.0 mg/kg/injection, schedule: Q01DX005 (ip), vehicle: saline with Tween-80
[2] = dose: 200.0 mg/kg/injection, schedule: Q01DX005 (ip), vehicle: saline with Tween-80
[3] = dose: 50.0 mg/kg/injection, schedule: Q01DX005 (ip), vehicle: saline with Tween-80

## CC(=O)NC1CC(=O)N(c2ccc(Cl)cc2)C1=O (stereo unspecified)
dose: 50.0 mg/kg/injection, schedule: Q01DX009 (ip), vehicle: Klucel (hydroxypropylcellulose) (HPC)
  T/C: 96 % of control
dose: 100.0 mg/kg/injection, schedule: Q01DX009 (ip), vehicle: Klucel (hydroxypropylcellulose) (HPC)
  T/C: 96 % of control
dose: 100.0 mg/kg/injection, schedule: Q04DX003 (ip), vehicle: Klucel (hydroxypropylcellulose) (HPC)
  T/C: 102 % of control
dose: 200.0 mg/kg/injection, schedule: Q04DX003 (ip), vehicle: Klucel (hydroxypropylcellulose) (HPC)
  T/C: 101 % of control

## Oc1ccccc1O
dose: 3.12 mg/kg/injection, schedule: Q01DX009 (ip), vehicle: saline
  T/C: 112 % of control
dose: 6.25 mg/kg/injection, schedule: Q01DX009 (ip), vehicle: saline
  T/C: 104 % of control
dose: 12.5 mg/kg/injection, schedule: Q01DX009 (ip), vehicle: saline
  T/C: 105 % of control
dose: 25.0 mg/kg/injection, schedule: Q01DX009 (ip), vehicle: saline
  T/C: 105 % of control
dose: 50.0 mg/kg/injection, schedule: Q01DX009 (ip), vehicle: saline
  T/C: 105 % of control and 106 % of control and 107 % of control

## CCOC(=O)C(CC)C(=O)c1ccccc1 (stereo unspecified)
dose: 75.0 mg/kg/injection, schedule: Q01DX009 (ip), vehicle: saline with Tween-80
  T/C: 105 % of control
dose: 150.0 mg/kg/injection, schedule: Q01DX009 (ip), vehicle: saline with Tween-80
  T/C: 109 % of control
dose: 300.0 mg/kg/injection, schedule: Q01DX009 (ip), vehicle: saline with Tween-80
  T/C: 112 % of control

## Nc1ccc(C(=O)c2cccs2)cn1
dose: 50.0 mg/kg/injection, schedule: Q01DX005 (ip), vehicle: distilled water + alcohol
  T/C: 98 % of control
dose: 100.0 mg/kg/injection, schedule: Q01DX005 (ip), vehicle: distilled water + alcohol
  T/C: 104 % of control

## Cc1c(N)nc(C(CC(N)=O)NCC(N)C(N)=O)nc1C(=O)NC(C(=O)NC(C)C(O)CC(=O)NC(C(=O)NC(OC1OC(C)C(N)C(O)C1O)C(O)c1nc(-c2nc(C(=O)NCCCC(N)CC(=O)NCCCNCCCCN)cs2)cs1)C(C)O)C(OC1OC(CO)C(O)C(O)C1OC1OC(CO)C(O)C(OC(N)=O)C1O)c1cnc[nH]1 (stereo unspecified)
dose: 0.5 mg/kg/injection, schedule: Q01DX009 (ip), vehicle: water
  T/C: 106 % of control
dose: 0.8 mg/kg/injection, schedule: Q01DX009 (ip), vehicle: water
  T/C: 113 % of control and 119 % of control
dose: 1.0 mg/kg/injection, schedule: Q01DX009 (ip), vehicle: water
  T/C: 113 % of control
dose: 1.3 mg/kg/injection, schedule: Q01DX009 (ip), vehicle: water
  T/C: 113 % of control and 97 % of control
dose: 2.0 mg/kg/injection, schedule: Q01DX009 (ip), vehicle: water
  T/C: 113 % of control
dose: 2.2 mg/kg/injection, schedule: Q01DX009 (ip), vehicle: water
  T/C: 111 % of control and 87 % of control
dose: 3.6 mg/kg/injection, schedule: Q01DX009 (ip), vehicle: water
  T/C: 92 % of control

## COC(=O)C1=C/CCCN(C(c2ccccc2)c2ccccc2)/C=C\1C(=O)OC
dose: 100.0 mg/kg/injection, schedule: Q01DX001 (ip), vehicle: saline
  T/C: 99 % of control
dose: 200.0 mg/kg/injection, schedule: Q01DX001 (ip), vehicle: saline
  T/C: 91 % of control
dose: 400.0 mg/kg/injection, schedule: Q01DX001 (ip), vehicle: saline
  T/C: 95 % of control

## CCOCCOC(=O)c1nn(-c2ccc(Cl)cc2)c2c1C(=O)c1ccccc1C2=O
dose: 50.0 mg/kg/injection, schedule: Q01DX005 (ip), vehicle: Klucel (hydroxypropylcellulose) (HPC)
  T/C: 94 % of control
dose: 100.0 mg/kg/injection, schedule: Q01DX005 (ip), vehicle: Klucel (hydroxypropylcellulose) (HPC)
  T/C: 100 % of control
dose: 200.0 mg/kg/injection, schedule: Q01DX005 (ip), vehicle: Klucel (hydroxypropylcellulose) (HPC)
  T/C: 101 % of control

## O=C(CCSC1=NCCCN1)c1ccc(F)cc1
dose: 12.5 mg/kg/injection, schedule: Q01DX009 (ip), vehicle: saline with Tween-80
  T/C: 111 % of control
dose: 25.0 mg/kg/injection, schedule: Q01DX009 (ip), vehicle: saline with Tween-80
  T/C: 118 % of control
dose: 50.0 mg/kg/injection, schedule: Q01DX009 (ip), vehicle: saline with Tween-80
  T/C: 118 % of control and 120 % of control

## CCc1nc(N)nc(N)c1-c1ccc([N+](=O)[O-])c(Cl)c1
[1]
  T/C: 152 % of control
[2]
  T/C: 93 % of control

## O=C1OCC(C(=O)N2Cc3cc4ccccc4nc3C2)C1CO (stereo unspecified)
dose: 100.0 mg/kg/injection, schedule: Q01DX009 (ip), vehicle: saline with Tween-80
  T/C: 94 % of control
dose: 200.0 mg/kg/injection, schedule: Q01DX009 (ip), vehicle: saline with Tween-80
  T/C: 115 % of control
dose: 400.0 mg/kg/injection, schedule: Q01DX009 (ip), vehicle: saline with Tween-80
  T/C: 105 % of control

## CC12CCC(C(Br)C1=O)C2(C)CBr (stereo unspecified)
[3]
  T/C: 103 % of control
[1]
  T/C: 104 % of control
[2]
  T/C: 92 % of control

## Nc1nc2ccc(CO)nc2c(=O)[nH]1
[3]
  T/C: 98 % of control
[1]
  T/C: 106 % of control
[2]
  T/C: 101 % of control

From PubChem BioAssay AID330 (DTP/NCI, 2004)
